Values quoted from earlier work in US20210235730A1, “FOOD PROTECTION OF FRUIT, CEREAL AND VEGETABLE AND DERIVATIVES” (Hawei Technologies Co., Ltd., priority 2018, published 2021).

How the values were obtained:
[1] = test system: moulds and yeasts; details: raw pork, heat-treated and pasteurised
[2] = test system: coliform microorganisms and arerobic spore-forming microorganisms; details: raw pork, heat-treated and pasteurised

N=C(N)N [guanidium]
effect on growth of moulds and yeasts [1]: has an effect on the growth
effect on coliform and aerobic spore-forming microorganisms [2]: not significantly influenced
